Laboratory results: patent US20220160651A1, “RAPIDLY IMPROVING ENDOTHELIAL FUNCTION, REDUCING ARTERIAL STIFFNESS AND REVERSING CALCIFICATION OF BLOOD VESSELS BY ADMINISTERING VITAMIN K” (KAYDENCE PHARMA AS, priority 2019, published 2022)

Columns and labels:
Type in all cases: in vivo
[1] = system: ApoE/LDLR−/− mice; assay: MRI assessment of endothelium-dependent vasodilatation (FMD in femoral artery, Ach response in abdominal aorta), young mice (Example 3)
Method: Mice were randomly assigned to one of four experimental groups: control (untreated group) and three groups treated with vitamin K2 at a dose of 0.05, 0.5, and 5 mg/kg b.w./day, respectively. End-point measurements were performed at the age of 10-16 weeks.
Magnetic resonance imaging (MRI) experiments were performed using a 9.4T scanner (BioSpec 94/20 USR, Bruker, Germany) located in the Department of Magnetic Resonance Imaging, Institute of Nuclear Physics, Polish Academy of Sciences in Krakow. During the experiment, mice were anaesthetized using isoflurane (Aerrane, Baxter Sp. z o. o., Poland, 1.7 vol %) in an oxygen and air (1:2) mixture and imaged in the supine position. Activity of the heart, respiration, and body temperature (maintained at 37° C. using circulating warm water) were monitored using a Monitoring and Gating System (SA Inc., Stony Brook, N.Y., USA).
Endothelial function was assessed based on vascular responses to acetylcholine (Ach) administration in brachiocephalic artery (BCA), left common carotid artery (LCA) (FIGS. 6 A and B) and abdominal aorta (AA) (FIG. 6C) as well as to responses to increase in flow (flow-mediated dilatation, FMD) in femoral artery (FA) (FIG. 6D) as described in Bar A, Skorka T, Jasinski K, Sternak M, Bartel Ż, Tyrankiewicz U, et al. Retrospectively-gated MRI for in vivo assessment of endothelium-dependent vasodilatation and endothelial permeability in murine models of endothelial dysfunction. NMR Biomed 2016; 29(8):1088.; Sternak M, Bar A, Adamski M G, Mohaissen T, Marczyk B, Kieronska A, et al. The Deletion of Endothelial Sodium Channel α (αENaC) Impairs Endothelium-Dependent Vasodilation and Endothelial Barrier Integrity in Endotoxemia in Vivo. Front Pharmacol 2018; 9:178. doi:10.3389/fphar.2018.00178.; and Bar A, Olkowicz M, Tyrankiewicz U, Kus E, Jasinski K, Smolenski R T, et al. Functional and Biochemical Endothelial Profiling In Vivo in a Murine Model of Endothelial Dysfunction; Comparison of Effects of 1-Methylnicotinamide and Angiotensin-converting Enzyme Inhibitor. Front Pharmacol 2017; 8:183. doi:10.3389/fphar.2017.00183.).
Vasomotor response was examined by comparing two time-resolved 3D images of the vessels prior to and 25 minutes after intraperitoneal Ach administration (Sigma-Aldrich, Poznan Poland: 50 μl, 16.6 mg/kg), as well as prior to and 5 minutes after vessel occlusion. Images were acquired using the cine IntraGate™ FLASH 3D sequence, reconstructed with the IntraGate 1.2.b.2 macro (Bruker). End-diastolic volumes of vessels were analyzed using ImageJ software 1.46r (NIH Bethesda, Md., USA) and scripts written in Matlab (MathWorks, Natick, Mass., USA). Imaging parameters included the following: repetition time (TR)—6.4 ms, echo time (TE)—1.4 ms, field of view (FOV) −30×30×5 mm3, matrix size—256×256×30, flip angle (FA)—30°, and number of accumulations (NA)—15, reconstructed to 7 cardiac frames. Total scan time was 10 minutes.

[2] = system: ApoE/LDLR−/− mice; assay: Nitrite and nitrate concentration in plasma, HPLC-based ENO-20 (Example 2); conditions: two months; for increase in NO2− concentration in plasma: vs untreated
Method: Nitrite (NO2^−) and nitrate (NO3^−) concentration in plasma—HPLC-based ENO-20
Blood samples were collected from heart into test tubes containing additional anticoagulant and centrifuged at 1000 g for 10 min at 4° C. The samples were used for HPLC measurement of nitrate (NO3^−) and nitrite (NO2^−) concentrations in plasma by an ENO-20 NOx Analyzer.

[3] = system: thrombin generation in platelet-poor mice plasma; assay: Thrombin generation by calibrated automated thrombogram (CAT); conditions: either dose (0.03 or 10 mg/kg b.w./day), eight weeks
Method: Thrombin generation was measured in platelet-poor mice plasma using calibrated automated thrombography (CAT) technique as described in Hemker H C, Giesen P, Al Dieri R, Regnault V, de Smedt E, Wagenvoord R, et al. Calibrated automated thrombin generation measurement in clotting plasma. Pathophysiol Haemost Thromb 2003; 33:4-15. doi:71636. Thrombin generation was activated by mixing 21 μl of diluted plasma (1:1 with BSAS buffer) with 7 μIL of fluorogenic substrate (Z-Gly-Gly-Arg-AMC, 16.6 mM) and 14 μl of trigger solution containing phospholipids, tissue factor and CaCl2 (4 μM, […] and 16.6 mM, respectively). In the calibration wells, the 14 μl of reagents were replaced with calibrator (102 nM). Immediately after the activation, 5 μl of the mixture was pipetted on paper disks in a flat bottom 96-well polystyrene plate and covered with 40 μl of mineral oil. Fluorescent signals were measured using the Fluoroskan Ascent software (Thermo Labsystems, Helsinki, Finland) and transformed into thrombin concentration as described in Hemker H C, Kremers R. Data management in Thrombin Generation. Thromb Res 2013; 131:3-11. doi:10.1016/j.thromres.2012.10.011. The parameters analyzed included endogenous thrombin potential (ETP), peak thrombin concentration (peak), and lag time.

[4] = system: ApoE/LDLR−/− mice; assay: Histological assessment of area and composition of atherosclerotic plaque in BCA, older mice (Example 3); conditions: eight weeks
Excerpt: For the determination of atherosclerotic plaque area and composition isolated brachiocephalic artery (BCA) was dissected, fixed in 4% buffered formalin, and embedded in paraffin. 5 μm-thick serial sections of BCA were collected from the proximal to distal part of the artery. Staining with Unna's orcein combined with Martius, Scarlet and Blue trichrome (OMSB) was applied on every tenth section (50 μm interval between each section) for quantitative analysis of atherosclerotic plaques. The areas of particular components of atherosclerotic plaque as well as artery lumen and wall were determined after Columbus-based software processing (FIG. 9) using specially-designed algorithm as described in Gajda M, Jasztal A, Banasik T, Jasek-Gajda E, Chlopicki S. Combined orcein and martius scarlet blue (OMSB) staining for qualitative and quantitative analyses of atherosclerotic plaques in brachiocephalic arteries in apoE/LDLR−/− mice. Histochem Cell Biot 2017. doi:10.1007/s00418-017-1538-8. The parameters analyzed include vessel wall area (VWA), internal vessel area (IVA=plaque area+lumen area), plaque area (expressed as percent of internal wall area: plaque/IWA), and lumen area (expressed as percent of internal wall area: lumen/IWA).

[5] = system: ApoE/LDLR−/− mice; assay: Nitrite and nitrate concentration in plasma, older mice (Example 3); conditions: 0.03 and 10 mg/kg b.w./day, eight weeks
[6] = 0.05 mg/kg b.w./day, eight weeks
[7] = 0.05 mg/kg b.w./day, four weeks, 15-week-old mice

Structure (SMILES): CC(C)=CCC/C(C)=C/CC/C(C)=C/CC/C(C)=C/CC/C(C)=C/CC/C(C)=C/CC/C(C)=C/CC1=C(C)C(=O)c2ccccc2C1=O [MK-7, menaquinone-7]
- Ach response in AA, volume changes [1, 6]: −0.65%
- FMD in FA, volume changes [1, 6]: 28.34%
- Ach response in AA, volume changes [1, 7]: −1.59%
- FMD in FA, volume changes [1, 7]: 33.26%
- Ach response in AA, volume changes ([1]; 0.5 mg/kg b.w./day, two weeks): 1.52%
- FMD in FA, volume changes ([1]; 0.5 mg/kg b.w./day, two weeks): 28.57%
- Ach response in AA, volume changes ([1]; 5 mg/kg b.w./day, two weeks): 0.16%
- FMD in FA, volume changes ([1]; 5 mg/kg b.w./day, two weeks): 26.55%
- concentration of NO3− in plasma ([2]; 0.03 and 10 mg/kg b.w./day): did not change significantly
- increase in NO2− concentration in plasma ([2]; high dose 10 mg/kg b.w./day): ~42%
- increase in NO2− concentration in plasma ([2]; low dose 0.03 mg/kg b.w./day): about 58%
- thrombin generation [3]: did not affect
- plaque size compared with non-treated mice ([4]; low (0.03 mg/kg b.w./day) or high dose (10 mg/kg b.w./day)): not different
- decrease in vessel wall area (VWA) of BCA ([4]; low and high dose, 24-week-old mice): about 5%
- plaque and lumen area expressed as percent of IWA ([4]; low or high dose): did not change
- internal wall area (IWA) ([4]; lower dose): decreased only in the middle part of the vessel
- concentration of NO3− in plasma [5]: did not change significantly
